# Assay results published in PubChem BioAssay (NCI).
# Values joined by “and” are separate entries in the source; they are usually repeats but may differ in a detail not shown here. Equal values may be shown once.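 Exposure lasted 48 hours, with cells grown in 96-well plates and compounds tested at five concentrations. Abbreviation: GI50, concentration required for 50% inhibition of growth. TGI denotes the concentration required for complete inhibition of growth.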
# Columns and labels:
# Experiment in all cases: NCI tumour cell line growth inhibition, 48 h
# HOP-92 NSCLC = test system: HOP-92 NSCLC
# SK-MEL-2 melanoma = test system: SK-MEL-2 melanoma
# UACC-62 melanoma = test system: UACC-62 melanoma
# SF-539 CNS = test system: SF-539 CNS
# OVCAR-8 ovarian = test system: OVCAR-8 ovarian
# MOLT-4 leukemia = test system: MOLT-4 leukemia
# T-47D breast = test system: T-47D breast
# EKVX NSCLC = test system: EKVX NSCLC
# SN12C renal = test system: SN12C renal
# A549 NSCLC = test system: A549 NSCLC
# RXF 393 renal = test system: RXF 393 renal
# COLO 205 colon = test system: COLO 205 colon
# SF-295 CNS = test system: SF-295 CNS
# SNB-75 CNS = test system: SNB-75 CNS
# MCF7 breast = test system: MCF7 breast
# SNB-19 CNS = test system: SNB-19 CNS
# HCT-116 colon = test system: HCT-116 colon
SMILES,GI50 (HOP-92 NSCLC),TGI (HOP-92 NSCLC),TGI (SK-MEL-2 melanoma),TGI (UACC-62 melanoma),TGI (SF-539 CNS),TGI (OVCAR-8 ovarian),TGI (MOLT-4 leukemia),TGI (T-47D breast),TGI (EKVX NSCLC),TGI (SN12C renal),TGI (A549 NSCLC),TGI (RXF 393 renal),TGI (COLO 205 colon),TGI (SF-295 CNS),TGI (SNB-75 CNS),TGI (MCF7 breast),GI50 (SNB-19 CNS),TGI (SNB-19 CNS),TGI (HCT-116 colon),GI50 (COLO 205 colon)
COc1ccc(/C=C2/C(=O)N(/C=C3\C(=O)Oc4ccccc4C3=O)C(=NC(C)=O)N2C)cc1OC,> 100 µM,> 100 µM,> 100 µM,> 100 µM,> 100 µM,> 100 µM,> 100 µM,> 100 µM,> 100 µM,> 100 µM,> 100 µM,> 100 µM,> 100 µM,> 100 µM,> 100 µM,> 100 µM,> 100 µM,> 100 µM,> 100 µM,–
N#CC(C#N)=C(N)/C(C#N)=C/c1ccc(O)c(O)c1,–,> 100 µM,> 100 µM,> 100 µM,> 100 µM,> 100 µM,> 100 µM,> 100 µM,> 100 µM,> 100 µM,> 100 µM,> 100 µM,> 100 µM,> 100 µM,> 100 µM,> 100 µM,–,> 100 µM,> 100 µM,–
O=C(Cc1ccccc1)Nc1nc2ccc(Cl)cc2c2nc(-c3ccco3)nn12,–,57.1 µM,> 100 µM,> 100 µM,> 60.5 µM,> 100 µM,> 100 µM,> 100 µM,> 100 µM,> 100 µM,> 100 µM,59.7 µM,> 100 µM,> 100 µM,> 54.2 µM,> 100 µM,–,> 55.6 µM,> 100 µM,–
CNc1ccc(Cl)cc1C(=O)N1CCC[C@H]1CO,–,> 100 µM,> 100 µM,> 100 µM,> 100 µM,> 100 µM,> 100 µM,> 100 µM,> 100 µM,> 100 µM,> 100 µM,> 100 µM,> 100 µM,> 100 µM,> 100 µM,> 100 µM,–,> 100 µM,> 100 µM,–
CC(=O)OC1OC(C2c3cccc(O)c3C(=O)c3c(O)cc(CO)cc32)C(O)C(O)C1O (stereo not drawn),–,9.38 µM,6.11 µM and 5.71 µM,16.6 µM and 17.7 µM,4.22 µM and 4.73 µM,69.3 µM and > 100 µM,52.2 µM and 66.5 µM,27.3 µM and 15.6 µM,36.8 µM and 26 µM,24.3 µM and 17.9 µM,21.2 µM and 29.5 µM,29.8 µM and 55.5 µM,7.63 µM,10.5 µM and 22 µM,23.5 µM and 16.3 µM,35.3 µM and > 100 µM,–,6.7 µM and 6.51 µM,11.2 µM and 10.8 µM,2.7 µM
O=C1CCCc2cc3c(cc21)CC1(C3)Cc2cc3c(cc2C1)C(=O)CCC3,–,82.1 µM,15.6 µM,30.9 µM,5.85 µM,36.3 µM,> 43.1 µM,> 100 µM,> 100 µM,> 85.3 µM,53.8 µM,> 29.3 µM,5.06 µM,> 56 µM,> 100 µM,15.3 µM,–,> 100 µM,37.9 µM,–
O=C(O)C(C(F)(F)F)C(F)(F)F (tested in a mixture with another compound),–,> 100 µM,> 100 µM,> 100 µM,> 100 µM,> 100 µM,> 100 µM,> 100 µM,> 100 µM,> 100 µM,> 100 µM,> 100 µM,> 100 µM,> 100 µM,> 100 µM,> 100 µM,–,> 100 µM,> 100 µM,–
N#CCc1nc(-c2cc3ccc(O)cc3oc2=O)cs1,–,> 100 µM,66 µM,63.3 µM,> 100 µM,> 100 µM,> 100 µM,> 100 µM,> 100 µM,> 100 µM,> 100 µM,> 100 µM,> 100 µM,> 100 µM,> 100 µM,> 100 µM,–,> 100 µM,> 100 µM,–
Cc1ccc(C2SCc3nc4ccccc4n32)cc1 (stereo not drawn),–,70 µM,5.56 µM,21.3 µM,5.47 µM,30 µM,15.3 µM,> 100 µM,> 100 µM,38.6 µM,> 100 µM,6.33 µM,3.45 µM,7.17 µM,0.0817 µM,20.3 µM,–,> 100 µM,14 µM,–
C/C(=N\NC(N)=S)C(CN1CCCCC1)C(C1=C(O)c2ccccc2OC1)c1ccccc1 (stereo not drawn),–,> 100 µM,> 100 µM,> 100 µM,> 100 µM,> 100 µM,> 100 µM,> 100 µM,> 100 µM,> 100 µM,> 100 µM,> 100 µM,> 100 µM,> 100 µM,> 100 µM,> 100 µM,–,> 100 µM,> 100 µM,–
